Assay results reported in patent US4977152A, “Novel tricyclic derivatives which are agonists of cholinergic receptors, and drugs in which they are present” (Societe Anonyme: Sanofi, priority 1986, dated 1990).
Numbering of substitutions follows the chain as printed. “And” between values parts separate entries of the source, which are not always exact repeats. Equal entries are not always repeated. Structures can show the parent of a compound that is named as a salt. Where two headings read alike, the source gives them in different places.

How the values were obtained:
[1] = molecular target: T1, M1-type muscarinic cholinergic receptor (Rattus norvegicus, UniProt P08482); assay: Test for affinity for the M1-type muscarinic cholinergic receptor: displacement of [3H]pirenzepine on rat hippocampus homogenate; assay type: binding; conditions: for IC50: rat hippocampus homogenate, 1 nM [3H]PZ, 2 h at 4° C., pH 7.40; for r = (M2 /M1): ratio of IC50 M2 (3H-NMS, guinea-pig ileum) to IC50 M1 (3H-pirenzepine, rat hippocampus)
T1 sequence (P08482 1-460): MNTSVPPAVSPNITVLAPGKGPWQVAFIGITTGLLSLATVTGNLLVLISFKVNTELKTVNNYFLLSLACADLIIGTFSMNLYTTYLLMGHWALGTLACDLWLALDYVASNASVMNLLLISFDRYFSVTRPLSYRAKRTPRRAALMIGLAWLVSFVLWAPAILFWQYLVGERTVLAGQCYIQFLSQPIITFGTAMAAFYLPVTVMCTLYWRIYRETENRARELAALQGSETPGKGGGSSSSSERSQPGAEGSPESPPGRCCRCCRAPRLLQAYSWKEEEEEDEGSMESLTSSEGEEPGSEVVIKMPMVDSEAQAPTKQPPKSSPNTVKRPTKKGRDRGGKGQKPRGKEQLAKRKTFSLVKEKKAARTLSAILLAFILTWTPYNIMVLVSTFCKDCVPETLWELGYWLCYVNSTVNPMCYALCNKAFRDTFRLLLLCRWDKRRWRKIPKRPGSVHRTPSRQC
Source text: (§1) The M1 -type receptors are concentrated in certain areas of the brain, such as the hippocampus, the cerebral cortex and the striatum, and also in the sympathetic ganglia. These binding sites can be selectively labeled with [^3 H]pirenzepine ([^3 H]PZ). The M2 -type receptors predominate in the heart and ileum and can be labeled with [^3 H]N-methylscopolamine ([^3 H]NMS). To determine the selectivity of our molecules towards the M1 and M2 sites, we studied their interaction in vitro with [^3 H]PZ and [^3 H]NMS bound with a high affinity to membranes of rat hippocampus and membranes of smooth muscle of guinea-pig ileum, respectively.
The interaction of the molecules with M1 -type muscarinic receptors was studied by in vitro measurement, on a homogenate of rat hippocampus, of the displacement of tritiated pirenzepine ([^3 H]PZ) from its specific binding sites. Aliquots (10 μl) of a 5% (w/v) homogenate of rat hippocampus in an Na2 HPO4 buffer (50 mM, pH 7.40) are incubated for 2 h at 4° C. in the presence of [^3 H]pZ ([…]; final concentration: 1 nM) and increasing concentrations of products to be studied. The final volume is 2 ml. The reaction is stopped by centrifugation for 10 min at 50,000 × g. After decantation and washing of the residues, the bound radioactivity is counted by liquid scintillation. The non-specific binding is determined in the presence of 10 μmol/l of atropine sulfate. The 50% inhibitory concentration (IC50) is determined graphically (Ref.: Watson J. D., Roeskoe W. R. and Yamamura H.1., Life Sci., 31, 2019-2029, 1982).
(§2) Table 4 indicates the affinities of the products of the invention for M1 and M2 receptors. The results are expressed as 50% inhibitory concentrations (IC50), i.e. the concentration (in μM) which causes a 50% displacement placement of the tritiated ligand bound to the membrane receptors. The IC50 for displacement of ^3 H-pirenzepine represents the affinity for the M1 receptor; the IC50 for displacement of 3H-NMS represents the affinity for the M2 receptor.

[2] = molecular target: T2, M2-type muscarinic cholinergic receptor (Cavia porcellus, UniProt H0VRN8); assay: Test for affinity for the M2-type muscarinic cholinergic receptor: displacement of [3H]N-methylscopolamine on smooth muscle of guinea-pig ileum; assay type: binding; conditions: guinea-pig ileum smooth muscle homogenate, 0.3 nM [3H]NMS, 20 min at 30° C., pH 7.5
T2 construct: on a homogenate of smooth muscle of guinea-pig ileum; from tissue; host or cells: guinea-pig ileum smooth muscle homogenate
T2 sequence (H0VRN8 1-466): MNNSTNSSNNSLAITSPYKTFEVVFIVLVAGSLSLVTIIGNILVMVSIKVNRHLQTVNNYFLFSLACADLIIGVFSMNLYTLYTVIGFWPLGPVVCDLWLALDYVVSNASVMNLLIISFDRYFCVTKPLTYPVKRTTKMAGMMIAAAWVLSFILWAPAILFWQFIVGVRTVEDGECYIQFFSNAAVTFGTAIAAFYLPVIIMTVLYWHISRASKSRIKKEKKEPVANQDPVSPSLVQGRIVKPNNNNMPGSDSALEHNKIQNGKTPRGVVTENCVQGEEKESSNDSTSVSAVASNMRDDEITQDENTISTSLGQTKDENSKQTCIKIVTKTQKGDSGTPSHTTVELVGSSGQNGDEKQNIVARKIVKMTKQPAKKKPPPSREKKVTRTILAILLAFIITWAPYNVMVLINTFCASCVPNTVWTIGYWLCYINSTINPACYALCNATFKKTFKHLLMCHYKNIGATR
Source text: as §1
The interaction with M2 -type muscarinic receptors was studied by in vitro measurement, on a homogenate of smooth muscle of guinea-pig ileum, of the displacement of tritiated N-methylscopolamine ([^3 H]NMS) from its specific binding sites. Aliquots (50 μl) of a 0.625% (w/v) homogenate of smooth muscle of guinea-pig ileum in MEPES buffer (20 mM) containing NaCl (100 mM) and MgCl2 (10 mM) (final pH: 7.5) are incubated for 20 min at 30° C. in the presence of [^3 H]NMS ([…]; final concentration: 0.3 nM) and increasing concentrations of products to be tested. The final volume is 1 ml. The reaction is stopped by centrifugation for 5 min at 15,000 × g. The non-specific binding is determined in the presence of 10 μmol/l of atropine sulfate (Ref.: Hammer R., Berrie C. P., Birdsall N. I. M., Burgen A. S. V. and Hulme E. C., Nature, 283, 90-92, 1980; Hulme E. C., Birdsall N.1.M., Burgen A. S. V. and Mettha P., Mol. pharmacol., 14, 737-750, 1978).
as §2

[3] = molecular target: T3, M1 central muscarinic cholinergic receptors (Mus musculus, UniProt P12657); assay: Antagonism of rotational behavior induced by intrastriatal injection of pirenzepine in mice; assay type: in vivo, mice (female, Swiss, CD 1); conditions: ip, read-out: Pirenzepine antagonism ED50
T3 construct: The intrastriatal injection of PZ into mice induces rotational behavior; from tissue; host or cells: right striatum of living female mice (Swiss, CD 1)
T3 sequence (P12657 1-460): T1 sequence (P08482 1-460) with S309P
Experimental: Pirenzepine (PZ) is a specific antagonist of M1 central muscarinic cholinergic receptors. The intrastriatal injection of PZ into mice induces rotational behavior. The antagonism of this behavior by the products according to the invention was studied.
The products according to the invention are injected intraperitoneally (i.p.) after solubilization in distilled water or suspension in a 5% solution of gum arabic. The control animals receive an injection of the pure solvent under the same conditions.
The animals used are female mice (Swiss, CD 1, Charles River, France) with a body weight of between 25 and 30 grams.
Pirenzepine is dissolved in a phosphate buffer; the pH of the solution is 6.
The products to be studied or their solvents are injected intraperitoneally, in a volume of 0.4 ml per 20 g of body weight, 15 minutes before a direct injection of pirenzepine at a dose of […] into the right striatum of the mouse, according to the method described by p.
The number of contralateral rotations (rotations in the opposite direction to the side injected) was counted for three 2-minute periods after the injection of pirenzepine: minutes 2 to 4, 8 to 10 and 13 to 15. Each treatment includes 3 to 4 doses and 10 animals per dose. For each treatment, the total number of rotations and the percentage antagonism compared with the control group are calculated.

[4] = mice, i.p. 15 minutes before intrastriatal pirenzepine, 50% reduction in number of rotations

| SMILES | IC50 [1] | r = (M2 /M1) [1] | IC50 [2] | ED50 [3, 4] | r = (M2 /M1) ([1]; dihydrochloride) | ED50 [3] |
| --- | --- | --- | --- | --- | --- | --- |
| CCN(CC)CCNc1cc2c(nn1)-c1ccccc1CCC2 [SR 95640 A] | 0.05 µM | 40 | 2 µM | 3 mg/kg |  |  |
| Cl.Cl.c1ccc2c(c1)ccc1cc(NCCN3CCOCC3)nnc12 [SR 95679 A, 3-(2-Morpholinoethylamino)benzo[h]cinnoline dihydrochloride] | 3.1 µM |  | 100 µM and > 100 µM |  | 32 and > 32 | 10 mg/kg |
| Cl.Cl.c1ccc2c(c1)CCc1cc(NCCN3CCOCC3)nnc1-2 [SR 95695 A, 3-(2-Morpholinoethylamino)-5,6-dihydrobenzo[h]cinnoline dihydrochloride] | 2.6 µM |  | 100 µM and > 100 µM |  | 38 and > 38 | 5 mg/kg |
| CCN(CC)CCSc1cc2c(nn1)-c1ccccc1CC2.Cl [SR 95743 A, 3-(2-Diethylaminoethylthio)-5,6-dihydrobenzo[h]cinnoline hydrochloride] | 0.7 µM | 14 | 10 µM |  |  | 8 mg/kg |
| CN(C)CCOc1cc2c(nn1)-c1ccccc1CC2.Cl [SR 95745 A, 3-(2-Dimethylaminoethoxy)-5,6-dihydrobenzo[h]cinnoline hydrochloride] | 3.9 µM | 21 | 80 µM |  |  | 8 mg/kg |
| CCN(CC)CCCNc1cc2c(nn1)-c1ccccc1CC2.Cl.Cl [SR 95746 A, 3-(3-Diethylaminopropylamino)-5,6-dihydrobenzo[h]-cinnoline dihydrochloride] | 1.5 µM | 17 | 25 µM |  |  | 10 to 30 mg/kg |
| CCN(CC)CCNc1cc2c(nn1)-c1cc([N+](=O)[O-])ccc1CCC2.Cl.Cl [SR 95777 A, 3-(2-Diethylaminoethylamino)-10-nitro-6,7-dihydro-5H-benzocyclohepta[5,6-c]pyridazine dihydrochloride] | 0.1 µM | 56 | 5.6 µM |  |  | 0.5 mg/kg |
| CCN(CC)CCCNc1cc2c(nn1)-c1ccccc1CCC2 [SR 95818 A] | 0.24 µM | 50 | 12 µM | 7 mg/kg |  |  |
| CCN(CC)CCSc1cc2c(nn1)-c1ccccc1CCC2 [SR 95820 A, 3-(2-Diethylaminoethylthio)-6,7-dihydro-5H-benzocyclohepta[ [drawing 52] 5,6-c]pyridazine hydrochloride] | 0.07 µM | 29 | 2 µM | 8 mg/kg |  |  |
| CN(C)CCOc1cc2c(nn1)-c1ccccc1CCC2.Cl [SR 95822 A, 3-(2-Dimethylaminoethoxy)-6,7-dihydro-5H-benzocyclohepta[5,6-c]pyridazine hydrochloride] | 1 µM | 9.5 | 9.5 µM |  |  | 3 mg/kg |
| CN(C)CCNc1cc2c(nn1)-c1ccccc1CCC2 [SR 95824 A] | 0.2 µM | 125 | 25 µM | 3 mg/kg |  |  |
| CCN(CC)CCNc1cc2c(nn1)-c1cc(Cl)ccc1CCC2.Cl.Cl [SR 95878 A, 10-Chloro-3-(2-diethylaminoethylamino)-6,7-dihydro-5H-benzocyclohepta[5,6-c]pyridazine dihydrochloride] | 0.04 µM | 26 | 1.1 µM |  |  | 2 mg/kg |
| CCN1CCCC1CNc1cc2c(nn1)-c1ccccc1CCC2 (stereo not shown) [SR 95879 A, 3-[(1-Ethylpyrrolidin-2-yl)methylamino]-6,7-dihydro-5H-benzocyclohepta-5,6-c]pyridazine dihydrochloride] | 0.14 µM | 7 | 1 µM | 0.3 mg/kg |  |  |
| c1ccc2c(c1)CCCc1cc(NCCN3CCCC3)nnc1-2 [SR 95883 A] | 0.13 µM | 35 | 4.5 µM | 3 mg/kg |  |  |
| CCN(CC)CCNc1cc2c(nn1)-c1ccccc1CC2.Cl.Cl [SR 96054 A, 3-(2-Diethylaminoethylamino)-5,6-dihydrobenzo[h]cinnoline dihydrochloride] | 0.21 µM | 36 | 7.5 µM |  |  | 3 mg/kg |
| CCN(CC)CCNc1cc2ccc3ccccc3c2nn1.Cl.Cl [SR 96055 A, 3-(2-Diethylaminoethylamino)benzo[h]cinnoline dihydrochloride] | 0.32 µM | 53 | 17 µM |  |  | 3 mg/kg |
